# Test results taken from publication PMC5218480 (PLoS ONE, 2017).
# Test system: MV-4-11 cells
# Assay: Gene expression microarray analysis (Affymetrix PrimeView) and GSEA
# Type: cell-based, human
# Design: RFU PODN (11730768_x_at) / Fold change /veh PODN (11730768_x_at) / RFU LINC00158 (11744669_a_at) / Fold change /veh LINC00158 (11744669_a_at) / RFU DUSP10 (11751237_a_at) / Fold change /veh DUSP10 (11751237_a_at) / RFU ID3 (11757404_x_at) / Fold change /veh ID3 (11757404_x_at) / RFU PLEKHG5 (11737974_s_at) / Fold change /veh PLEKHG5 (11737974_s_at) / RFU LRRC4B (11730491_at) / Fold change /veh LRRC4B (11730491_at) / RFU GIMAP4 (11747438_a_at) / Fold change /veh GIMAP4 (11747438_a_at) / RFU KRT8 (11758183_x_at) / Fold change /veh KRT8 (11758183_x_at) / RFU CNN1 (11734310_a_at) / Fold change /veh CNN1 (11734310_a_at) / RFU VPS37D (11726825_at) / Fold change /veh VPS37D (11726825_at) / RFU C10orf10 (11716522_x_at) / Fold change /veh C10orf10 (11716522_x_at) / RFU KIR2DL2 /// KIR2DL4 /// KIR2DL5A /// KIR2DL5B /// KIR2DS1 /// KIR2DS2 /// KIR2DS3 /// KIR2DS4 /// KIR3DL3 /// KIR3DL3 /// KIR3DS1 (11738374_at) / Fold change /veh KIR2DL2 /// KIR2DL4 /// KIR2DL5A /// KIR2DL5B /// KIR2DS1 /// KIR2DS2 /// KIR2DS3 /// KIR2DS4 /// KIR3DL3 /// KIR3DL3 /// KIR3DS1 (11738374_at) / RFU C1QL1 (11718748_at) / Fold change /veh C1QL1 (11718748_at) / RFU TMPRSS4 (11747572_a_at) / Fold change /veh TMPRSS4 (11747572_a_at) / RFU HAMP (11756126_x_at) / Fold change /veh HAMP (11756126_x_at) / RFU RNFT2 (11725882_a_at) / Fold change /veh RNFT2 (11725882_a_at) / RFU NR4A2 (11747474_a_at) / Fold change /veh NR4A2 (11747474_a_at) / RFU ABCC12 (11746883_a_at) / Fold change /veh ABCC12 (11746883_a_at) / RFU TMEM136 (11760407_x_at) / Fold change /veh TMEM136 (11760407_x_at) / RFU CLDN22 /// WWC2 (11732394_at) / Fold change /veh CLDN22 /// WWC2 (11732394_at) / RFU HLA-DPB1 (11760878_x_at) / Fold change /veh HLA-DPB1 (11760878_x_at) / RFU SPINT1 (11716480_a_at) / Fold change /veh SPINT1 (11716480_a_at) / RFU GAP43 (11754022_s_at) / Fold change /veh GAP43 (11754022_s_at) / RFU A4GNT (11735810_at) / Fold change /veh A4GNT (11735810_at) / RFU PRB3 (11715151_x_at) / Fold change /veh PRB3 (11715151_x_at) / RFU TUBB4B (11761932_at) / Fold change /veh TUBB4B (11761932_at) / RFU CAPN14 (11732068_a_at) / Fold change /veh CAPN14 (11732068_a_at) / RFU TMCC2 (11721928_a_at) / Fold change /veh TMCC2 (11721928_a_at) / RFU IRGQ (11745062_a_at) / Fold change /veh IRGQ (11745062_a_at) / RFU FAM174B (11720279_a_at) / Fold change /veh FAM174B (11720279_a_at) / RFU TMPRSS4 (11748680_a_at) / Fold change /veh TMPRSS4 (11748680_a_at) / RFU FAM212B (11763350_a_at) / Fold change /veh FAM212B (11763350_a_at) / RFU PLEKHG5 (11743358_a_at) / Fold change /veh PLEKHG5 (11743358_a_at) / RFU ZSCAN30 (11745921_a_at) / Fold change /veh ZSCAN30 (11745921_a_at) / RFU CMKLR1 (11741424_a_at) / Fold change /veh CMKLR1 (11741424_a_at) / RFU LOC101060620 /// MAPK8IP1 (11723275_at) / Fold change /veh LOC101060620 /// MAPK8IP1 (11723275_at) / RFU SPTSSB (11747773_x_at) / Fold change /veh SPTSSB (11747773_x_at) / RFU PRSS12 (11739890_at) / Fold change /veh PRSS12 (11739890_at) / RFU BIN1 (11741810_x_at) / Fold change /veh BIN1 (11741810_x_at) / RFU WNT11 (11732464_a_at) / Fold change /veh WNT11 (11732464_a_at) / RFU C10orf10 (11716521_a_at) / Fold change /veh C10orf10 (11716521_a_at) / RFU C5orf56 (11738089_at) / Fold change /veh C5orf56 (11738089_at) / RFU CYB561 (11721691_x_at) / Fold change /veh CYB561 (11721691_x_at) / RFU ANKRD19P (11752326_a_at) / Fold change /veh ANKRD19P (11752326_a_at) / RFU OR2T12 /// OR2T33 /// OR2T8 (11738714_s_at) / Fold change /veh OR2T12 /// OR2T33 /// OR2T8 (11738714_s_at) / RFU VCAN (11748164_a_at) / Fold change /veh VCAN (11748164_a_at) / RFU JSRP1 (11732532_at) / Fold change /veh JSRP1 (11732532_at) / RFU KRTAP10-11 (11738290_x_at) / Fold change /veh KRTAP10-11 (11738290_x_at) / RFU MYO3A (11730013_a_at) / Fold change /veh MYO3A (11730013_a_at) / RFU EBF3 (11725865_a_at) / Fold change /veh EBF3 (11725865_a_at) / RFU CAMK2N1 (11719241_x_at) / Fold change /veh CAMK2N1 (11719241_x_at) / RFU C5orf56 (11738088_a_at) / Fold change /veh C5orf56 (11738088_a_at) / RFU OLFML3 (11715873_a_at) / Fold change /veh OLFML3 (11715873_a_at) / RFU LOC100653217 /// NTM (11731650_a_at) / Fold change /veh LOC100653217 /// NTM (11731650_a_at) / RFU MAPK11 (11762145_a_at) / Fold change /veh MAPK11 (11762145_a_at) / RFU FIZ1 (11724087_x_at) / Fold change /veh FIZ1 (11724087_x_at) / RFU OASL (11726364_x_at) / Fold change /veh OASL (11726364_x_at) / RFU SOX15 (11748057_x_at) / Fold change /veh SOX15 (11748057_x_at) / RFU CD79A (11719716_a_at) / Fold change /veh CD79A (11719716_a_at) / RFU HIST1H1D (11736915_at) / Fold change /veh HIST1H1D (11736915_at) / RFU CASKIN2 (11723855_a_at) / Fold change /veh CASKIN2 (11723855_a_at) / RFU LOC730098 (11760151_x_at) / Fold change /veh LOC730098 (11760151_x_at) / RFU OR4N2 (11742367_at) / Fold change /veh OR4N2 (11742367_at) / RFU PRRT2 (11749266_a_at) / Fold change /veh PRRT2 (11749266_a_at) / RFU SNX32 (11753110_a_at) / Fold change /veh SNX32 (11753110_a_at) / RFU CDHR5 (11726645_a_at) / Fold change /veh CDHR5 (11726645_a_at) / RFU RCAN1 (11760418_a_at) / Fold change /veh RCAN1 (11760418_a_at) / RFU FAM167A (11723789_a_at) / Fold change /veh FAM167A (11723789_a_at) / RFU FAM26E (11764081_at) / Fold change /veh FAM26E (11764081_at) / RFU ISYNA1 (11749810_s_at) / Fold change /veh ISYNA1 (11749810_s_at) / RFU ACY1 (11761880_at) / Fold change /veh ACY1 (11761880_at) / RFU 11764098_at / Fold change /veh 11764098_at / RFU SAMD14 (11745864_x_at) / Fold change /veh SAMD14 (11745864_x_at) / RFU NPB (11741838_a_at) / Fold change /veh NPB (11741838_a_at) / RFU TMPRSS6 (11731388_a_at) / Fold change /veh TMPRSS6 (11731388_a_at) / RFU KRTAP10-2 (11738614_at) / Fold change /veh KRTAP10-2 (11738614_at) / RFU ARHGAP8 /// PRR5-ARHGAP8 (11727945_x_at) / Fold change /veh ARHGAP8 /// PRR5-ARHGAP8 (11727945_x_at) / RFU KRTAP5-7 /// NADSYN1 (11734609_at) / Fold change /veh KRTAP5-7 /// NADSYN1 (11734609_at) / RFU RASL12 (11751679_a_at) / Fold change /veh RASL12 (11751679_a_at) / RFU CDKN2B (11736163_a_at) / Fold change /veh CDKN2B (11736163_a_at) / RFU PRF1 (11729649_at) / Fold change /veh PRF1 (11729649_at) / RFU, ZNF638 /// ZNF638-IT1 / Fold change vs veh, ZNF638 /// ZNF638-IT1 / RFU, PANK3 / Fold change vs veh, PANK3 / RFU, SH3YL1 / Fold change vs veh, SH3YL1 / RFU, ZEB2 / Fold change vs veh, ZEB2 / RFU, NRIP1 / Fold change vs veh, NRIP1 / RFU, PTTG1IP / Fold change vs veh, PTTG1IP / RFU, CAPN2 / Fold change vs veh, CAPN2 / RFU, MED14 / Fold change vs veh, MED14 / RFU, SNORA58 / Fold change vs veh, SNORA58 / RFU, C1orf63 / Fold change vs veh, C1orf63 / RFU, LRRFIP1 / Fold change vs veh, LRRFIP1 / RFU, NDUFAF7 / Fold change vs veh, NDUFAF7 / RFU, SLC12A2 / Fold change vs veh, SLC12A2 / RFU, IBTK / Fold change vs veh, IBTK / RFU, ESF1 / Fold change vs veh, ESF1 / Fold change vs veh, TMEM50B / RFU, TAOK1 / Fold change vs veh, TAOK1 / RFU, ACBD3 / Fold change vs veh, ACBD3 / RFU, TMA16 / Fold change vs veh, TMA16 / RFU, RWDD3 / Fold change vs veh, RWDD3 / RFU, BCAT1 / Fold change vs veh, BCAT1 / RFU, EDEM3 / Fold change vs veh, EDEM3 / RFU, TMEM33 / Fold change vs veh, TMEM33 / RFU, WDR75 / Fold change vs veh, WDR75 / RFU, AHCTF1 / Fold change vs veh, AHCTF1 / RFU, TFRC / Fold change vs veh, TFRC / RFU, ZDHHC17 / Fold change vs veh, ZDHHC17 / RFU, NOM1 / Fold change vs veh, NOM1 / RFU, ARL8B / Fold change vs veh, ARL8B / RFU, ZBTB11 / Fold change vs veh, ZBTB11 / RFU, TAMM41 / Fold change vs veh, TAMM41 / RFU, KIAA1704 /// LOC100996395 / Fold change vs veh, KIAA1704 /// LOC100996395 / RFU, ING1 / Fold change vs veh, ING1 / RFU, TRMT61B / Fold change vs veh, TRMT61B / RFU, FUBP3 / Fold change vs veh, FUBP3 / RFU, TP53 / Fold change vs veh, TP53 / RFU, TNKS2 / Fold change vs veh, TNKS2 / RFU, ZFP14 / Fold change vs veh, ZFP14 / RFU, ACTR2 / Fold change vs veh, ACTR2 / RFU, PPP3R1 / Fold change vs veh, PPP3R1 / RFU, PIK3R1 / Fold change vs veh, PIK3R1 / RFU, HNRNPA1 / Fold change vs veh, HNRNPA1 / RFU, RNF170 / Fold change vs veh, RNF170 / RFU, ZNF28 / Fold change vs veh, ZNF28 / RFU, RNGTT / Fold change vs veh, RNGTT / RFU, OGT / Fold change vs veh, OGT / RFU, BRD1 / Fold change vs veh, BRD1 / RFU, MARS / Fold change vs veh, MARS / RFU, ZNF655 / Fold change vs veh, ZNF655 / RFU, FAHD1 / Fold change vs veh, FAHD1 / RFU, BDP1 / Fold change vs veh, BDP1 / RFU, LRRCC1 / Fold change vs veh, LRRCC1 / RFU, ARID1A / Fold change vs veh, ARID1A / RFU, ZNF146 / Fold change vs veh, ZNF146 / RFU, ZNF330 / Fold change vs veh, ZNF330 / RFU, GPN3 / Fold change vs veh, GPN3 / RFU, C9orf123 / Fold change vs veh, C9orf123 / RFU, N4BP2L2 / Fold change vs veh, N4BP2L2 / RFU, ARFIP1 / Fold change vs veh, ARFIP1 / RFU, FAM179B / Fold change vs veh, FAM179B / RFU, BCL10 / Fold change vs veh, BCL10 / RFU, UHRF1BP1L / Fold change vs veh, UHRF1BP1L / RFU, BET1 / Fold change vs veh, BET1 / RFU, CNOT2 / Fold change vs veh, CNOT2 / RFU, ZNF268 / Fold change vs veh, ZNF268 / Fold change vs veh, ZNF507 / RFU, DGCR2 / Fold change vs veh, DGCR2 / RFU, WDSUB1 / Fold change vs veh, WDSUB1 / Fold change vs veh, HSP90B1 /// MIR3652 / RFU, ADSS / Fold change vs veh, ADSS / RFU, GK / Fold change vs veh, GK / RFU, ZNF148 / Fold change vs veh, ZNF148 / RFU, TAF9 / Fold change vs veh, TAF9 / RFU, SLC1A5 / Fold change vs veh, SLC1A5 / RFU, SLMO2 / Fold change vs veh, SLMO2 / RFU, ABCC4 / Fold change vs veh, ABCC4 / RFU, LOC101060439 /// RAP1B / Fold change vs veh, LOC101060439 /// RAP1B / RFU, RFX7 / Fold change vs veh, RFX7 / RFU, GTPBP10 / Fold change vs veh, GTPBP10 / RFU, CNEP1R1 / Fold change vs veh, CNEP1R1 / RFU, BIVM-ERCC5 /// ERCC5 / Fold change vs veh, BIVM-ERCC5 /// ERCC5 / RFU, ILF3 / Fold change vs veh, ILF3 / RFU 11762660_at / Fold change /veh 11762660_at / RFU VCAN (11757783_s_at) / Fold change /veh VCAN (11757783_s_at) / RFU DDX43 (11728927_at) / Fold change /veh DDX43 (11728927_at) / RFU KRT8 (11758188_x_at) / Fold change /veh KRT8 (11758188_x_at) / RFU NKD1 (11759106_at) / Fold change /veh NKD1 (11759106_at) / RFU SRD5A1 (11742802_a_at) / Fold change /veh SRD5A1 (11742802_a_at) / RFU TPSAB1 /// TPSB2 (11721975_s_at) / Fold change /veh TPSAB1 /// TPSB2 (11721975_s_at) / RFU GSTM3 (11746129_a_at) / Fold change /veh GSTM3 (11746129_a_at) / RFU IL23R (11737362_x_at) / Fold change /veh IL23R (11737362_x_at) / RFU TMEM51 (11727254_a_at) / Fold change /veh TMEM51 (11727254_a_at) / RFU PIWIL2 (11732686_x_at) / Fold change /veh PIWIL2 (11732686_x_at) / RFU ORM1 (11744905_x_at) / Fold change /veh ORM1 (11744905_x_at) / RFU CCDC152 (11743942_at) / Fold change /veh CCDC152 (11743942_at) / RFU ECM1 (11717891_a_at) / Fold change /veh ECM1 (11717891_a_at) / RFU IL23R (11748794_a_at) / Fold change /veh IL23R (11748794_a_at) / RFU TNFAIP8L3 (11732012_x_at) / Fold change /veh TNFAIP8L3 (11732012_x_at) / RFU MBOAT4 (11741988_at) / Fold change /veh MBOAT4 (11741988_at) / RFU 11764193_at / Fold change /veh 11764193_at / RFU TMEM53 (11763286_at) / Fold change /veh TMEM53 (11763286_at) / RFU MAGEB2 (11727129_at) / Fold change /veh MAGEB2 (11727129_at) / RFU TMEM200A (11744735_a_at) / Fold change /veh TMEM200A (11744735_a_at) / RFU CCDC152 (11751479_a_at) / Fold change /veh CCDC152 (11751479_a_at) / RFU FAM211A (11726209_a_at) / Fold change /veh FAM211A (11726209_a_at) / RFU RGS16 (11746705_a_at) / Fold change /veh RGS16 (11746705_a_at) / RFU VCAN (11755009_s_at) / Fold change /veh VCAN (11755009_s_at) / RFU RHOB (11743442_s_at) / Fold change /veh RHOB (11743442_s_at) / RFU RGS16 (11720943_a_at) / Fold change /veh RGS16 (11720943_a_at) / RFU RGS16 (11720944_at) / Fold change /veh RGS16 (11720944_at) / RFU, VPS4B / Fold change vs veh, VPS4B / RFU, CREB1 / Fold change vs veh, CREB1 / RFU, DNAJC13 / Fold change vs veh, DNAJC13 / RFU, GNAQ / Fold change vs veh, GNAQ / RFU, CDK5R1 / Fold change vs veh, CDK5R1 / RFU, ZRANB3 / Fold change vs veh, ZRANB3 / RFU, CUL4A / Fold change vs veh, CUL4A / RFU, CCNY / Fold change vs veh, CCNY / RFU, UFL1 / Fold change vs veh, UFL1 / RFU, COG3 / Fold change vs veh, COG3 / RFU, DIAPH2 / Fold change vs veh, DIAPH2 / RFU, SKA2 / Fold change vs veh, SKA2 / RFU, AFF3 / Fold change vs veh, AFF3 / RFU, LMF1 / Fold change vs veh, LMF1 / RFU, IPO11 / Fold change vs veh, IPO11 / RFU, DFFB / Fold change vs veh, DFFB / RFU, FOXP1 / Fold change vs veh, FOXP1 / RFU, CARD8 / Fold change vs veh, CARD8 / RFU, STRN3 / Fold change vs veh, STRN3 / RFU, ADK / Fold change vs veh, ADK / RFU, RASSF2 / Fold change vs veh, RASSF2 / RFU, WIPF1 / Fold change vs veh, WIPF1 / RFU, LARP1B / Fold change vs veh, LARP1B / RFU, RASA1 / Fold change vs veh, RASA1 / RFU, RB1 / Fold change vs veh, RB1 / RFU, PPFIA1 / Fold change vs veh, PPFIA1 / RFU, MAT2A / Fold change vs veh, MAT2A / RFU, CCT5 / Fold change vs veh, CCT5 / RFU, WDR92 / Fold change vs veh, WDR92 / RFU, CUX1 / Fold change vs veh, CUX1 / RFU, TTC7A / Fold change vs veh, TTC7A / RFU, TMEM135 / Fold change vs veh, TMEM135 / RFU, DEPTOR / Fold change vs veh, DEPTOR / RFU, CPM / Fold change vs veh, CPM / RFU, DNAJB6 / Fold change vs veh, DNAJB6 / RFU, CACNA2D3 / Fold change vs veh, CACNA2D3 / RFU, DTX4 / Fold change vs veh, DTX4 / RFU, TFCP2 / Fold change vs veh, TFCP2 / RFU, GMCL1 /// GMCL1P1 / Fold change vs veh, GMCL1 /// GMCL1P1 / RFU, AEBP2 / Fold change vs veh, AEBP2 / RFU, SNHG1 /// SNORD22 /// SNORD25 /// SNORD26 /// SNORD27 /// SNORD28 /// SNORD29 /// SNORD31 / Fold change vs veh, SNHG1 /// SNORD22 /// SNORD25 /// SNORD26 /// SNORD27 /// SNORD28 /// SNORD29 /// SNORD31 / Fold change (Aza/veh), C12orf56 (ProbeSet 11735607_a_at) / Fold change (ACY-1035/veh), C12orf56 (ProbeSet 11735607_a_at) / Fold change (Aza/veh), FGFR1OP (ProbeSet 11751329_s_at) / Fold change (ACY-1035/veh), FGFR1OP (ProbeSet 11751329_s_at) / Fold change (Aza/veh), VPS36 (ProbeSet 11739960_a_at) / Fold change (ACY-1035/veh), VPS36 (ProbeSet 11739960_a_at) / RFU SYPL1 (11715823_x_at) / Fold change /veh SYPL1 (11715823_x_at) / RFU IGFBP7 (11715501_s_at) / Fold change /veh IGFBP7 (11715501_s_at) / RFU REEP3 (11722064_at) / Fold change /veh REEP3 (11722064_at) / RFU IGLL1 (11728026_x_at) / Fold change /veh IGLL1 (11728026_x_at): dose or concentration left out as unconfirmed
# Conditions: MV-4-11 cells, 48 hours
compound,measurement,value
Nc1ncn([C@@H]2O[C@H](CO)[C@@H](O)[C@H]2O)c(=O)n1 [azacitidine],Fold change /veh DDX43 (11728927_at),1.23
